The experiment addresses T1, Recombinant human CBP containing the bromodomain (CBP-BD (1043-1159)) (Homo sapiens, UniProt Q92793).
T1 construct: Recombinant human CBP bromodomain (CBP-BD (1043-1159)); made in house; host or cells: E. coli BL21-CodonPlus (DE3), modified pET vector
In words: CBP Alphascreen binding assay. Conditions: read-out: CREBBP (CBP) IC50. In a few lines:
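Buffer: 50 mM HEPES pH 7.5, 50 mM NaCl, 0.01% BSA, 0.01% Triton X-100, 2 mM DTT. The signal was normalised to plate controls and fitted with a four-parameter curve to give IC50.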

Molecules are shown by their SMILES.

The values that follow come from patent US11446287B2, “Compounds and methods for EP300 or CBP modulation and indications therefor” (Opna Immuno-Oncology SA, priority 2019, dated 2022).

The IC50 is the concentration needed to halve the response being measured.

T1 sequence (Q92793 1081-1197): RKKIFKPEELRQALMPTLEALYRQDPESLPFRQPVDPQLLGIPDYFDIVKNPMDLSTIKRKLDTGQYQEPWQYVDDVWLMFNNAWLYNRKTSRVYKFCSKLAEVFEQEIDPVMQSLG

In the case of `Cc1noc(C)c1-c1cnc2c(c1)c(-c1ccc(C(=O)O)cc1OC(F)(F)F)cn2[C@@H]1CCOC1` [P-0286, (R)-4-(5-(3,5-dimethylisoxazol-4-yl)-1-(tetrahydrofuran-3-yl)-1H-pyrrolo[2,3-b]pyridin-3-yl)-3-(trifluoromethoxy)benzoic acid], the IC50 was 0.1 to 1000 nM.
The value for `CCn1cc(-n2cc(-c3ccc(C(=O)O)cc3OC(F)(F)F)c3cc(-c4c(C)noc4C)cnc32)c(C)n1` [P-0287, 4-(5-(3,5-dimethylisoxazol-4-yl)-1-(1-ethyl-3-methyl-1H-pyrazol-4-yl)-1H-pyrrolo[2,3-b]pyridin-3-yl)-3-(trifluoromethoxy)benzoic acid] was 0.1 to 1000 nM.
The value for `Cc1nn(C(F)F)cc1-n1cc(-c2ccc(C(=O)O)cc2OC(F)(F)F)c2cc(-c3c(C)noc3C)cnc21` [P-0288, 4-(1-(1-(difluoromethyl)-3-methyl-1H-pyrazol-4-yl)-5-(3,5-dimethylisoxazol-4-yl)-1H-pyrrolo[2,3-b]pyridin-3-yl)-3-(trifluoromethoxy)benzoic acid] was 0.1 to 1000 nM.
For `Cc1noc(C)c1-c1cnc2c(c1)c(-c1ccc(C(=O)O)cc1OC(F)(F)F)cn2-c1cnn(C(F)F)c1C` [P-0289, 4-(1-(1-(difluoromethyl)-5-methyl-1H-pyrazol-4-yl)-5-(3,5-dimethylisoxazol-4-yl)-1H-pyrrolo[2,3-b]pyridin-3-yl)-3-(trifluoromethoxy)benzoic acid], the IC50 fell in the range of 0.1 to 1000 nM.
Turning to `Cc1noc(C)c1-c1cnc2c(c1)c(-c1ccc(C(=O)O)cc1OC(F)(F)F)cn2C1CCNCC1` [P-0290, 4-(5-(3,5-dimethylisoxazol-4-yl)-1-(piperidin-4-yl)-1H-pyrrolo[2,3-b]pyridin-3-yl)-3-(trifluoromethoxy)benzoic acid], the IC50 fell in the range of 0.1 to 1000 nM.
The figure for `CC(=O)N1CCC(n2cc(-c3ccc(C(=O)O)cc3OC(F)(F)F)c3cc(-c4c(C)noc4C)cnc32)CC1` [P-0291, 4-(1-(1-acetylpiperidin-4-yl)-5-(3,5-dimethylisoxazol-4-yl)-1H-pyrrolo[2,3-b]pyridin-3-yl)-3-(trifluoromethoxy)benzoic acid] is 0.1 to 1000 nM; for `Cc1noc(C)c1-c1cnc2c(c1)c(-c1ccc(C(=O)O)cc1OC(F)(F)F)cn2C1CCN(S(C)(=O)=O)CC1` [P-0292, 4-(5-(3,5-dimethylisoxazol-4-yl)-1-(1-(methylsulfonyl)piperidin-4-yl)-1H-pyrrolo[2,3-b]pyridin-3-yl)-3-(trifluoromethoxy)benzoic acid] it is 0.1 to 1000 nM; for `Cc1noc(C)c1-c1cnc2c(c1)c(-c1ccc(C(=O)O)cc1OC(F)(F)F)cn2-c1ccncc1F` [P-0293, 4-(5-(3,5-dimethylisoxazol-4-yl)-1-(3-fluoropyridin-4-yl)-1H-pyrrolo[2,3-b]pyridin-3-yl)-3-(trifluoromethoxy)benzoic acid] it is 0.1 to 1000 nM.
The figure for `Cc1noc(C)c1-c1cnc2c(c1)c(-c1ccc(C(=O)O)cc1OC(F)(F)F)cn2-c1cnn(CC(C)(C)O)c1` [P-0294, 4-(5-(3,5-dimethylisoxazol-4-yl)-1-(1-(2-hydroxy-2-methylpropyl)-1H-pyrazol-4-yl)-1H-pyrrolo[2,3-b]pyridin-3-yl)-3-(trifluoromethoxy)benzoic acid] is 0.1 to 1000 nM; for `CCOc1cc(C(=O)O)ncc1-c1cn(-c2ccc(F)cc2F)c2ncc(-c3c(C)noc3C)cc12` [P-0295, 5-(1-(2,4-difluorophenyl)-5-(3,5-dimethylisoxazol-4-yl)-1H-pyrrolo[2,3-b]pyridin-3-yl)-4-ethoxypicolinic acid] it is 0.1 to 1000 nM; for `CCOc1c(F)c(C(=O)O)c(F)c(OCC)c1-c1cn(-c2ccc(F)cc2F)c2ncc(-c3c(C)noc3C)cc12` [P-0296, 4-(1-(2,4-difluorophenyl)-5-(3,5-dimethylisoxazol-4-yl)-1H-pyrrolo[2,3-b]pyridin-3-yl)-3,5-diethoxy-2,6-difluorobenzoic acid] it is 0.1 to 1000 nM.
The value for `CCOc1cc(C(=O)O)c(F)c(OCC)c1-c1cn(-c2ccc(F)cc2F)c2ncc(-c3c(C)noc3C)cc12` [P-0297, 4-(1-(2,4-difluorophenyl)-5-(3,5-dimethylisoxazol-4-yl)-1H-pyrrolo[2,3-b]pyridin-3-yl)-3,5-diethoxy-2-fluorobenzoic acid] was 0.1 to 1000 nM; that for `Cc1noc(C)c1-c1cnc2c(-c3ccccc3)cn(-c3c(OCC(F)(F)F)cc(C(=O)O)cc3OCC(F)(F)F)c2c1` [P-0298, 4-(6-(3,5-dimethylisoxazol-4-yl)-3-phenyl-1H-pyrrolo[3,2-b]pyridin-1-yl)-3,5-bis(2,2,2-trifluoroethoxy)benzoic acid] was 0.1 to 1000 nM; that for `Cc1noc(C)c1-c1cnc2c(c1)c(-c1ccc(C(=O)O)cc1OC(C)C)cn2-c1cnn(CC(C)(C)O)c1` [P-0299, 4-(5-(3,5-dimethylisoxazol-4-yl)-1-(1-(2-hydroxy-2-methylpropyl)-1H-pyrazol-4-yl)-1H-pyrrolo[2,3-b]pyridin-3-yl)-3-isopropoxybenzoic acid] was 0.1 to 1000 nM.
`Cc1noc(C)c1-c1cnc2c(c1)c(-c1ccc(C(=O)O)cc1OC(C)C)cn2-c1cnc(N2CCC2)nc1` [P-0300, 4-(1-(2-(azetidin-1-yl)pyrimidin-5-yl)-5-(3,5-dimethylisoxazol-4-yl)-1H-pyrrolo[2,3-b]pyridin-3-yl)-3-isopropoxybenzoic acid]: the IC50 fell in the range of 0.1 to 1000 nM.
The value for `Cc1noc(C)c1-c1cnc2c(c1)c(-c1ccc(C(=O)O)cc1OC(C)C)cn2[C@H]1CCOC1` [P-0301, (S)-4-(5-(3,5-dimethylisoxazol-4-yl)-1-(tetrahydrofuran-3-yl)-1H-pyrrolo[2,3-b]pyridin-3-yl)-3-isopropoxybenzoic acid] was 0.1 to 1000 nM; that for `Cc1noc(C)c1-c1cnc2c(c1)c(-c1ccc(S(C)(=O)=O)cc1OC(C)C)cn2-c1ccccc1` [P-0302, 4-(3-(2-isopropoxy-4-(methylsulfonyl)phenyl)-1-phenyl-1H-pyrrolo[2,3-b]pyridin-5-yl)-3,5-dimethylisoxazole] was 0.1 to 1000 nM; that for `CCCn1nc(C(=O)O)c(N)c1-c1cn(-c2ccc(F)cc2F)c2ncc(-c3c(C)noc3C)cc12` [P-0303, 4-amino-5-(1-(2,4-difluorophenyl)-5-(3,5-dimethylisoxazol-4-yl)-1H-pyrrolo[2,3-b]pyridin-3-yl)-1-propyl-1H-pyrazole-3-carboxylic acid] was 0.1 to 1000 nM.
The value for `CCCn1nc(C(=O)O)c(NCC)c1-c1cn(-c2ccc(F)cc2F)c2ncc(-c3c(C)noc3C)cc12` [P-0304, 5-(1-(2,4-difluorophenyl)-5-(3,5-dimethylisoxazol-4-yl)-1H-pyrrolo[2,3-b]pyridin-3-yl)-4-(ethylamino)-1-propyl-1H-pyrazole-3-carboxylic acid] was 0.1 to 1000 nM.
For `Cc1nnn(C)c1-c1cnc2c(c1)c(-c1ccc(C(=O)O)cc1OC(F)(F)F)cn2CC/C=C/C1CC1` [P-0305, (E)-4-(1-(4-cyclopropylbut-3-en-1-yl)-5-(1,4-dimethyl-1H-1,2,3-triazol-5-yl)-1H-pyrrolo[2,3-b]pyridin-3-yl)-3-(trifluoromethoxy)benzoic acid], the IC50 lay within 0.1 to 1000 nM.
The value for `Cc1noc(C)c1-c1cnc2c(c1)c(-c1ccc(C(=O)O)cc1OCC(F)F)cn2-c1ccncc1Cl` [P-0306, 4-(1-(3-chloropyridin-4-yl)-5-(3,5-dimethylisoxazol-4-yl)-1H-pyrrolo[2,3-b]pyridin-3-yl)-3-(2,2-difluoroethoxy)benzoic acid] was 0.1 to 1000 nM.
The value for `Cc1noc(C)c1-c1cnc2c(c1)c(-c1ccc(C(=O)O)cc1OC(F)(F)F)cn2-c1ccccc1Cl` [P-0307, 4-(1-(2-chlorophenyl)-5-(3,5-dimethylisoxazol-4-yl)-1H-pyrrolo[2,3-b]pyridin-3-yl)-3-(trifluoromethoxy)benzoic acid] was 0.1 to 1000 nM; that for `Cc1noc(C)c1-c1cnc2c(c1)c(-c1ccc(C(=O)O)cc1OC(F)(F)F)cn2-c1ccccc1C1CC1` [P-0308, 4-(1-(2-cyclopropylphenyl)-5-(3,5-dimethylisoxazol-4-yl)-1H-pyrrolo[2,3-b]pyridin-3-yl)-3-(trifluoromethoxy)benzoic acid] was 0.1 to 1000 nM; that for `Cc1noc(C)c1-c1cnc2c(c1)c(-c1ccc(C(=O)O)cc1OC(F)(F)F)cn2-c1ccccc1C#N` [P-0309, 4-(1-(2-cyanophenyl)-5-(3,5-dimethylisoxazol-4-yl)-1H-pyrrolo[2,3-b]pyridin-3-yl)-3-(trifluoromethoxy)benzoic acid] was 0.1 to 1000 nM.
The figure for `Cc1cc(C#N)ccc1-n1cc(-c2ccc(C(=O)O)cc2OC(F)(F)F)c2cc(-c3c(C)noc3C)cnc21` [P-0310, 4-(1-(4-cyano-2-methylphenyl)-5-(3,5-dimethylisoxazol-4-yl)-1H-pyrrolo[2,3-b]pyridin-3-yl)-3-(trifluoromethoxy)benzoic acid] is 0.1 to 1000 nM; for `COc1ccc(-n2cc(-c3ccc(C(=O)O)cc3OC(F)(F)F)c3cc(-c4c(C)noc4C)cnc32)c(F)c1` [P-0311, 4-(5-(3,5-dimethylisoxazol-4-yl)-1-(2-fluoro-4-methoxyphenyl)-1H-pyrrolo[2,3-b]pyridin-3-yl)-3-(trifluoromethoxy)benzoic acid] it is 0.1 to 1000 nM.
As to `C=C(C)c1ccccc1-n1cc(-c2ccc(C(=O)O)cc2OC(F)(F)F)c2cc(-c3c(C)noc3C)cnc21` [P-0312, 4-(5-(3,5-dimethylisoxazol-4-yl)-1-(2-(prop-1-en-2-yl)phenyl)-1H-pyrrolo[2,3-b]pyridin-3-yl)-3-(trifluoromethoxy)benzoic acid], the IC50 lay within 0.1 to 1000 nM.
With `Cc1noc(C)c1-c1cnc2c(c1)c(-c1ccc(C(=O)O)cc1OC(F)(F)F)cn2-c1ccc(C#N)cc1` [P-0313, 4-(1-(4-cyanophenyl)-5-(3,5-dimethylisoxazol-4-yl)-1H-pyrrolo[2,3-b]pyridin-3-yl)-3-(trifluoromethoxy)benzoic acid], the 50% inhibitory concentration (IC50) lay in the range of 0.1 to 1000 nM.
